In the supplement of paper PMC10307832:

Experiments:
Assay in all cases: relative viability (nuclei count vs DMSO), 5 days (fraction); higher = more cells survive
Trametinib + Alpelisib = compound: CC(=O)Nc1cccc(-n2c(=O)n(C3CC3)c(=O)c3c(Nc4ccc(I)cc4F)n(C)c(=O)c(C)c32)c1 [Trametinib] + Cc1nc(NC(=O)N2CCC[C@H]2C(N)=O)sc1-c1ccnc(C(C)(C)C(F)(F)F)c1 [Alpelisib] (partner 2 µM)
Method in brief: (§1)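 Lung cancer cell lines in 1536-well plates got either a single drug or a fixed anchor-drug dose together with five library-drug doses (not always all listed) in √10 steps, by pin tool, on the day after seeding. Nuclei were counted after 5 days, and relative viability is the treated-to-vehicle ratio of nuclei counts. Values are medians of duplicate plates.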

Trametinib + Phenformin = compound: CC(=O)Nc1cccc(-n2c(=O)n(C3CC3)c(=O)c3c(Nc4ccc(I)cc4F)n(C)c(=O)c(C)c32)c1 [Trametinib] + N=C(N)NC(=N)NCCc1ccccc1 [Phenformin] (partner 250 µM)
Method in brief: as §1

[1] = compound: CN1C=C(C2=CC=CC=C21)/C=C\3/C4=C(C=CC=N4)NC3=O + COc1cccc2cc(-c3nc([C@H]4CC[C@H](C(=O)O)CC4)n4ncnc(N)c34)[nH]c12 [OSI-027] (partner 0.5 µM)
Method in brief: as §1

[2] = compound: CN1C=C(C2=CC=CC=C21)/C=C\3/C4=C(C=CC=N4)NC3=O + CS(=O)(=O)N1CCN(Cc2cc3nc(-c4cccc5[nH]ncc45)nc(N4CCOCC4)c3s2)CC1 [Pictilisib] (partner 1 µM)
Method in brief: as §1

Cell Line | relative viability (Trametinib + Alpelisib; first compound 0.0025 µM) | relative viability (Trametinib + Alpelisib; first compound 0.007906 µM) | relative viability (Trametinib + Alpelisib; first compound 0.025 µM) | relative viability (Trametinib + Alpelisib; first compound 0.07906 µM) | relative viability (Trametinib + Alpelisib; first compound 0.25 µM) | relative viability (Trametinib + Phenformin; first compound 0.0025 µM) | relative viability (Trametinib + Phenformin; first compound 0.007906 µM) | relative viability (Trametinib + Phenformin; first compound 0.025 µM) | relative viability (Trametinib + Phenformin; first compound 0.07906 µM) | relative viability (Trametinib + Phenformin; first compound 0.25 µM) | relative viability ([1]; first compound 0.02 µM) | relative viability ([1]; first compound 0.06325 µM) | relative viability ([1]; first compound 0.2 µM) | relative viability ([1]; first compound 0.6325 µM) | relative viability ([1]; first compound 2 µM) | relative viability ([2]; first compound 0.02 µM) | relative viability ([2]; first compound 0.06325 µM) | relative viability ([2]; first compound 0.2 µM) | relative viability ([2]; first compound 0.6325 µM) | relative viability ([2]; first compound 2 µM)
NCI-H2009 | 0.88 | 0.72 | 0.444 | 0.485 | 0.362 | 0.394 | 0.302 | 0.231 | 0.213 | 0.215 | 0.684 | 0.616 | 0.668 | 0.688 | 0.642 | 0.804 | 0.672 | 0.682 | 0.8 | 0.792
LC-2-ad | 0.864 | 0.452 | 0.662 | 0.408 | 0.233 | 0.625 | 0.543 | 0.5 | 0.427 | 0.338 | 0.81 | 0.811 | 0.687 | 0.803 | 0.724 | 0.356 | 0.475 | 0.434 | 0.446 | 0.401
NCI-H1437 | 0.908 | 0.342 | 0.22 | 0.219 | 0.208 | 0.258 | 0.205 | 0.23 | 0.201 | 0.206 | 0.862 | 0.897 | 0.793 | 0.927 | 1.01 | 0.432 | 0.399 | 0.466 | 0.403 | 0.493
NCI-H3122 | 0.466 | 0.395 | 0.224 | 0.234 | 0.21 | 0.381 | 0.296 | 0.282 | 0.243 | 0.233 | 0.879 | 0.9 |  | 1.18 | 1.4 | 0.597 | 0.541 | 0.5 | 0.563 | 0.632
NCI-H1563 | 0.94 | 0.985 | 0.992 | 0.968 | 0.628 | 0.637 | 0.636 | 0.676 | 0.597 | 0.59 | 0.741 | 0.75 | 0.743 | 0.778 | 0.75 | 0.587 | 0.618 | 0.641 | 0.747 | 0.682
NCI-H727 | 0.312 | 0.211 | 0.227 | 0.172 | 0.183 | 0.32 | 0.359 | 0.406 | 0.257 | 0.264 | 0.57 | 0.553 | 0.408 | 0.657 | 0.58 | 0.363 | 0.304 | 0.208 | 0.299 | 0.484
NCI-H1734 | 0.627 | 0.712 |  | 0.631 | 0.444 | 0.289 | 0.292 | 0.217 | 0.245 | 0.206 | 0.581 | 0.631 |  | 0.68 | 0.565 | 0.432 | 0.454 |  | 0.466 | 0.45
HCC-15 | 0.645 | 0.436 | 0.275 | 0.204 | 0.148 | 0.361 | 0.229 | 0.18 | 0.179 | 0.145 | 0.656 | 0.568 | 0.582 | 0.651 | 0.552 | 0.717 | 0.639 | 0.775 | 0.666 | 0.771
NCI-H2405 | 0.599 | 0.42 | 0.339 | 0.379 | 0.315 | 0.326 | 0.316 | 0.28 | 0.202 | 0.251 | 0.703 | 0.611 | 0.62 | 0.657 | 0.711 | 0.423 | 0.399 | 0.401 | 0.388 | 0.41
NCI-H1993 | 0.649 | 0.722 | 0.656 | 0.699 | 0.649 | 0.538 | 0.536 | 0.558 | 0.554 | 0.56 | 0.454 | 0.515 | 0.587 | 0.571 | 0.577 | 0.743 | 0.772 | 0.826 | 0.809 | 0.804
NCI-H460 | 0.417 | 0.146 | 0.115 | 0.0733 | 0.0121 | 0.502 | 0.332 | 0.237 | 0.135 | 0.041 | 0.81 | 0.726 | 0.649 | 0.63 | 0.676 | 0.508 | 0.324 | 0.285 | 0.292 | 0.335
NCI-H1651 | 0.901 | 0.864 | 0.775 | 0.597 | 0.66 | 0.26 | 0.293 | 0.296 | 0.288 | 0.182 | 0.615 | 0.724 | 0.65 | 0.66 | 0.733 | 0.495 | 0.706 | 0.628 | 0.524 | 0.728
NCI-H1975 | 0.547 | 0.415 | 0.301 | 0.223 | 0.268 | 0.386 | 0.308 | 0.291 | 0.234 | 0.124 | 0.698 | 0.739 | 0.828 | 0.646 | 0.449 | 0.297 | 0.255 | 0.251 | 0.246 | 0.246
NCI-H2126 | 0.706 | 0.608 | 0.447 | 0.527 | 0.45 | 0.501 | 0.464 | 0.419 | 0.481 | 0.466 | 0.605 | 0.657 | 0.6 | 0.697 | 0.612 | 0.486 | 0.492 | 0.431 | 0.431 | 0.415
201T | 1.02 | 0.914 | 0.866 | 0.893 | 0.765 | 0.397 | 0.412 | 0.44 | 0.437 | 0.423 | 0.773 | 0.366 | 0.626 | 0.835 | 0.422 | 0.64 | 0.649 | 0.629 | 0.626 | 0.613
